Test results taken from publication PMC9643456, “Matching amino acids membrane preference profile to improve activity of antimicrobial peptides” (Communications Biology, 2022).
Ends that are not written are not given here.

How the values were obtained:
MDR E. faecalis = assay: microbe, parasite or virus in culture; conditions: for MIC in 0.2% albumin and 0.01% AcOH added CLSI standard condition, MDR E. faecalis: CAMHB plus 0.2% bovine serum albumin and 0.01% acetic acid, values marked * in Table 2; for Minimum inhibitory concentrations, MDR E. faecalis: CLSI broth microdilution, CAMHB with 50 mg/L Ca2+, 10 mg/L Mg2+, 5 × 10^5 CFU/ml, 18 h 37 °C, triplicate, strain ATCC 51575
Summary of the method: (§1)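 CLSI broth microdilution, CAMHB + Ca 50 mg/L, Mg 10 mg/L. Mid-log inoculum 5 × 10^5 CFU/ml final, 18 h, 37 °C. MIC = lowest peptide conc. with no visible turbidity by eye; triplicate.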

MDR S. aureus = assay: microbe, parasite or virus in culture; conditions: for MIC in 0.2% albumin and 0.01% AcOH added CLSI standard condition, MDR S. aureus: CAMHB plus 0.2% bovine serum albumin and 0.01% acetic acid, values marked * in Table 2; for Minimum inhibitory concentrations, MDR S. aureus: CLSI broth microdilution, CAMHB with 50 mg/L Ca2+, 10 mg/L Mg2+, 5 × 10^5 CFU/ml, 18 h 37 °C, triplicate, strain KCCM 40510
Summary of the method: as §1

MDR P. aeruginosa = assay: microbe, parasite or virus in culture; conditions: for MIC in 0.2% albumin and 0.01% AcOH added CLSI standard condition, MDR P. aeruginosa: CAMHB plus 0.2% bovine serum albumin and 0.01% acetic acid, values marked * in Table 2; for Minimum inhibitory concentrations, MDR P. aeruginosa: CLSI broth microdilution, CAMHB with 50 mg/L Ca2+, 10 mg/L Mg2+, 5 × 10^5 CFU/ml, 18 h 37 °C, no visible turbidity, triplicate, strain CCARM 2180
Summary of the method: as §1

MDR A. baumannii = assay: microbe, parasite or virus in culture; conditions: for MIC in 0.2% albumin and 0.01% AcOH added CLSI standard condition, MDR A. baumannii: CAMHB plus 0.2% bovine serum albumin and 0.01% acetic acid, values marked * in Table 2; for Minimum inhibitory concentrations, MDR A. baumannii: CLSI broth microdilution, CAMHB with 50 mg/L Ca2+, 10 mg/L Mg2+, 5 × 10^5 CFU/ml, 18 h 37 °C, triplicate, strain ATCC BAA-1605
Summary of the method: as §1

[1] = Maximum soluble concentration / turbidity; format: physicochemical; conditions: for Maximum soluble concentration in PBS: lyophilized peptide reconstructed in PBS at 200-6.25 μM, visible turbidity checked every 12 h for 5 days, at least twice; for solubility: distilled water
Experimental: Supplementary Methods Bacteria preparation, Antimicrobial peptides preparation, Minimal-inhibitory-concentration measurements, Hemolysis-activity measurements, Tryptophan fluorescence measurements, Isothermal titration calorimetry measurements, Bacteria membrane ion permeation measurements, Outer-inner membrane permeation, Field-emission scanning electron microscopy and Antimicrobial kinetics were performed as described in Materials and Methods. Liposome (LUV) preparation. Bacterial-membrane-mimic DMPC/DMPG unilamellar vesicles (LUV) and mammalian- membrane-mimic PC/cholesterol vesicles with 100-nm diameters were prepared by extrusion. LiposoFast Liposome Factory Basic unit with stabilizer (Avestin, Ottawa, Canada) was used to extrude liposomes 50 times through a polycarbonate membrane filter (pore diameter, 100 nm; filter diameter, 0.75 inches) (Avestin). […] rac-(1-glycerol)) (sodium salt) (DMPG) (Avanti, Alabama, USA); 1,2-Dimyristoyl-sn-glycero-3-phosphocholine (DMPC) (Avanti); and cholesterol (Sigma, Darmstadt, Germany) were used. For circular dichroism, isothermal titration calorimetry, tryptophan fluorescence, and dynamic light scattering experiments, liposomes were reconstructed and resuspendedwith phosphate-buffered saline (PBS; Welgene Inc, Gyeongsangbuk-do, Korea). For calcein-permeation tests, liposomes were reconstructed with calcein solutions (80 mM, 40 mM, 30 mM, 20 mM, and 10 mM) (Sigma, Darmstadt, Germany), purified with Sephadex-G50 columns (Pharmacia biotech, Stockholm, Sweden), and resuspended with PBS. Maximum-soluble -concentration measurements. […] turbidity with PBS. The lowest concentration of peptide without visible turbidity was determined to be the maximu m soluble concentration. Each experiment was performed at least twice. Circular dichroism (CD) spectrum. DMPC/PG -liposome, PC/cholesterol -liposome, and peptide stock solutions were diluted in PBS. For circular dichroism, PBS with neither liposome nor peptides was also prepared. Liposomes and peptides were mixed to […] Samples were transferred into type J/1 cuvettes (Jasco, Tokyo, Japan). Cuvettes were placed into the J -815 circular -dichroism spectrometer (Jasco, Tokyo, Japan). Measurement parameters were as follows: wavelength, 190 -260 nm; data pitch, 0.2 nm; bandwidth, 1.00 nm; […] Each experiment was performed in triplicate. Data below 197 nm was not analyzed because o f experimental difficulties in obtaining those spectra. Each experiment was performed at least twice. Artificial membrane calcein permeation measurements. Calcein fluorescence was used to measure peptide -induced liposome permeation. Calcein solutions (10 mM, 20 mM, or 60 mM) containing PC/PG liposomes and peptides were diluted in PBS ( ×1, ×2, ×3, ×8). […] Liposome solutions (180 μl) were transferred to wells of black, clear -bottomed 96 -well plates (Costar, New York, USA). Peptide […] Liposome-containing plates and peptide -containing plates were inserted into a Flexstation 3 Multi -Mode Microplate Reader (Molecular Devices, California, USA). Peptide solutions (20 μl) were transferred and mixed with liposome solution automatical ly after 30 sec. […] Measurement parameters were as follows: excitation, 490 nm; emission, 520 nm; temperature, 37 °C. […] was transferred and mixed with the liposome -peptide solu tions automatically after 300 sec to acquire fluorescence at maximum leakage. […] Fluorescence measured between 0 -300 sec after addition of 0 μg/ml peptide was considered the baseline. Each experiment was performed at least twice. Dynamic light scattering (DLS) measurements. Dynamic light scattering was used to measure peptide -induced liposome volume changes. PC/PG -liposome stock solutions and peptides were resuspended in PBS. Liposomes and peptides were mixed to […]

human red blood cells = assay: Hemolytic activity; format: cell-based; conditions: red cells of human, 18 h
Summary of the method: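 Peptides (100 μM down to 0.78 μM) were incubated with 4% final human erythrocytes in PBS for 18 h at 37 °C. Supernatant absorbance at 540 nm after centrifugation was scaled to 1% Triton X-100 (100%) and no peptide (0%); melittin served as positive control; triplicate runs.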

| Substance | MIC in 0.2% albumin and 0.01% AcOH added CLSI standard condition, MDR E. faecalis (MDR E. faecalis) | Minimum inhibitory concentrations, MDR E. faecalis (MDR E. faecalis) | MIC in 0.2% albumin and 0.01% AcOH added CLSI standard condition, MDR S. aureus (MDR S. aureus) | Minimum inhibitory concentrations, MDR S. aureus (MDR S. aureus) | MIC in 0.2% albumin and 0.01% AcOH added CLSI standard condition, MDR P. aeruginosa (MDR P. aeruginosa) | Minimum inhibitory concentrations, MDR P. aeruginosa (MDR P. aeruginosa) | MIC in 0.2% albumin and 0.01% AcOH added CLSI standard condition, MDR A. baumannii (MDR A. baumannii) | Minimum inhibitory concentrations, MDR A. baumannii (MDR A. baumannii) | Maximum soluble concentration in PBS [1] | Hemolysis percent, 25 μM (human red blood cells) | Hemolysis percent, 50 μM (human red blood cells) | Hemolysis percent, 100 μM (human red blood cells) | solubility [1] | MIC at TM potential condition, S. aureus KCCM 40510 (MDR S. aureus; bacteria OD 0.1 (5 x 10^7 cfu/ml), CAMHB, 1% DMSO) |
| --- | --- | --- | --- | --- | --- | --- | --- | --- | --- | --- | --- | --- | --- | --- |
| WLVWVGRRR-NH2 [Hybrid-1] | > 20 µM | > 20 µM | > 20 µM | > 20 µM | > 20 µM | > 20 µM | > 20 µM | > 20 µM | > 200 µM | 0.88 ±0.24% | 1.09 ±0.32% | 1.40 ±0.08% |  |  |
| WLVWVWRRR-NH2 [Hybrid-3] | 2.5 µM | 10 µM | 5 µM | 10 µM | > 20 µM | > 20 µM | 0.63 µM | 2.5 µM | > 200 µM | 4.26 ±0.63% | 5.14 ±0.19% | 7.17 ±1.09% |  |  |
| WLVWIGRRR-NH2 [Hybrid-2] | > 20 µM | > 20 µM | > 20 µM | > 20 µM | > 20 µM | > 20 µM | 10 µM |  | > 200 µM | 0.66 ±0.07% | 1.21 ±0.01% | 2.88 ±1.49% |  |  |
| LLLLLWRRR-NH2 [AcWL-2] | 10 µM |  | 10 µM |  | > 20 µM | > 20 µM | 20 µM | > 20 µM | 50 µM | 14.39 ±0.70% | 15.13 ± 2.05% | 27.97 ±2.79% |  |  |
| RWLRWWIRV-NH2 [HLWCopW29-1] | 10 µM |  | 10 µM |  | 20 µM |  | 1.25 µM | 2.5 µM | > 200 µM | 1.20 ±0.14% | 1.35 ±0.11% | 16.39 ±2.19% |  |  |
| GVLVLFRRR-NH2 [Ptg C-ter 1] | > 20 µM | > 20 µM | > 20 µM | > 20 µM | > 20 µM | > 20 µM | > 20 µM | > 20 µM | 100 µM | 0.40 ±0.10% | 0.99 ±0.26% | 1.17 ±0.07% |  |  |
| GVLVWFRRR-NH2 [Ptg C-ter 2] | > 20 µM | > 20 µM | > 20 µM | > 20 µM | > 20 µM | > 20 µM | > 20 µM | > 20 µM | 100 µM | 0.52 ±0.05% | 1.14 ±0.02% | 1.80 ±0.07% | < 500 µM |  |
| WLRRWWIRV-NH2 [HLWCopW29-2] | 10 µM |  | 10 µM |  | > 20 µM | > 20 µM | 2.5 µM | 5 µM | > 200 µM | 1.87 ±0.12% | 4.13 ±0.28% | 19.60 ±0.50% |  | > 20 µM |
| GVWVLFRRR-NH2 [Ptg C-ter 3] | > 20 µM | > 20 µM | > 20 µM | > 20 µM | > 20 µM | > 20 µM | > 20 µM | > 20 µM | 100 µM | 0.44 ±0.10% | 0.80 ±0.09% | 1.32 ±0.09% | < 500 µM |  |
| WRLWRWIVR-NH2 [HLWCopW29-3] | 20 µM |  | 20 µM |  | > 20 µM | > 20 µM | 20 µM |  | > 200 µM | 1.10 ±0.14% | 1.37 ±0.02% | 4.45 ±0.23% |  |  |
